Assay results published in patent publication EP4722201A1, “3-PHENYLISOXAZOLINE-5-CARBOXAMIDE COMPOUND, AND PREPARATION METHOD THEREFOR, HERBICIDAL COMPOSITION THEREOF AND USE THEREOF” (Jiangsu Flag Chemical Industry Co., Ltd, priority 2023, dated 2024).

How the values were obtained:
Format in all cases: in vivo
Digitaria sanguinalis [1] = experiment: Indoor herbicide activity determination, post-emergence (stem and leaf spray at 2-4 leaf stage); settings: 504 h, determined 21 days later, read-out: Inhibition rate of fresh weight, Digitaria sanguinalis; for inhibition at 60 g/ha: 60 g a.i./ha; for inhibition at 30 g/ha: 30 g a.i./ha
How it was run: (§1)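 Potted weeds in sandy nutrient soil (pH 6.1, 1% organic matter) were grown in a constant-temperature illuminated room to the 2-4 leaf stage, then given a stem-and-leaf spray. Plants went back to the culture room once the spray had dried in shade. At 21 days, fresh weight inhibition % was calculated relative to untreated control plants.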

Eclipta prostrata [2] = experiment: as above; settings: 504 h, determined 21 days later, read-out: Inhibition rate of fresh weight, Eclipta prostrata; for inhibition at 60 g/ha: 60 g a.i./ha; for inhibition at 30 g/ha: 30 g a.i./ha
How it was run: as §1

Cyperus iria [3] = experiment: as above; settings: 504 h, determined 21 days later, read-out: Inhibition rate of fresh weight, Cyperus iria; for inhibition at 60 g/ha: 60 g a.i./ha; for inhibition at 30 g/ha: 30 g a.i./ha
How it was run: as §1

Aegilops tauschii = experiment: Indoor herbicide activity determination, Seed Treatment; pre-emergence (soil spray); settings: read-out: Herbicidal activities (inhibition rate) Aegilops tauschii; for inhibition at 120 g/ha: 120 g a.i./ha; for inhibition at 60 g/ha: 60 g a.i./ha
How it was run: (§2)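 Sow seeds into soil-filled 7 cm pots (sandy, pH 6.1, 1% organic matter) and cover them. Water from beneath, then incubate 24 h in a lit, temperature-controlled chamber. Spray the soil in a traveling tower, let it dry in shade, grow on 21 days, and weigh fresh biomass against controls.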

Leptochloa chinensis = experiment: as above; settings: Dosage 240 g a.i./ha
How it was run: as §2

Digitaria sanguinalis [4] = experiment: as above; settings: read-out: Herbicidal activities (inhibition rate) Digitaria sanguinalis; for inhibition at 120 g/ha: 120 g a.i./ha; for inhibition at 60 g/ha: 60 g a.i./ha
How it was run: as §2

Alopecurus japonicus = experiment: as above; settings: Dosage 240 g a.i./ha
How it was run: as §2

Lolium multiflorum = experiment: as above; settings: Dosage 240 g a.i./ha
How it was run: as §2

Eleusine indica = experiment: as above; settings: Dosage 240 g a.i./ha
How it was run: as §2

Eclipta prostrata [5] = experiment: as above; settings: read-out: Herbicidal activities (inhibition rate) Eclipta prostrata; for inhibition at 120 g/ha: 120 g a.i./ha; for inhibition at 60 g/ha: 60 g a.i./ha
How it was run: as §2

Alopecurus myosuroides = experiment: as above; settings: Dosage 240 g a.i./ha
How it was run: as §2

Cyperus iria [6] = experiment: as above; settings: read-out: Herbicidal activities (inhibition rate) Cyperus iria; for inhibition at 120 g/ha: 120 g a.i./ha; for inhibition at 60 g/ha: 60 g a.i./ha
How it was run: as §2

For `O=C(N[C@H]1C[C@@H](C(=O)O)C1)C1(C(F)(F)F)CC(c2cc(F)cc(F)c2)=NO1` (mixture of isomers) [I-206], the inhibition at 60 g/ha (Digitaria sanguinalis [1]) was 80 to 100%, the inhibition at 60 g/ha (Eclipta prostrata [2]) was 80 to 100% and the inhibition at 60 g/ha (Cyperus iria [3]) was 80 to 100%. For the same compound, the inhibition at 120 g/ha (Aegilops tauschii) was 80 to 100%, the “Herbicidal activities, Leptochloa chinensis (inhibition rate class)” value (Leptochloa chinensis) was “A (A indicates that the inhibition rate was greater than or equal to 80% to 100%)” and the inhibition at 120 g/ha (Digitaria sanguinalis [4]) was 80 to 100%. For the same compound, the “Herbicidal activities, Alopecurus japonicus (inhibition rate class)” value (Alopecurus japonicus) was “A (A indicates that the inhibition rate was greater than or equal to 80% to 100%)”, the “Herbicidal activities, Lolium multiflorum (inhibition rate class)” value (Lolium multiflorum) was “A (A indicates that the inhibition rate was greater than or equal to 80% to 100%)” and the “Herbicidal activities, Eleusine indica (inhibition rate class)” value (Eleusine indica) was “A (A indicates that the inhibition rate was greater than or equal to 80% to 100%)”. For the same compound, the inhibition at 120 g/ha (Eclipta prostrata [5]) was 60 to 80%, the “Herbicidal activities, Alopecurus myosuroides (inhibition rate class)” value (Alopecurus myosuroides) was “A (A indicates that the inhibition rate was greater than or equal to 80% to 100%)” and the inhibition at 120 g/ha (Cyperus iria [6]) was 80 to 100%.
In the case of `COC(=O)[C@H]1C[C@@H](NC(=O)C2(C(F)(F)F)CC(c3cc(F)cc(F)c3)=NO2)C1` (mixture of isomers) [I-208], the inhibition at 60 g/ha (Digitaria sanguinalis [1]) is reported as 80 to 100%, the inhibition at 60 g/ha (Eclipta prostrata [2]) is reported as 80 to 100% and the inhibition at 60 g/ha (Cyperus iria [3]) is reported as 80 to 100%. For the same compound, the inhibition at 120 g/ha (Aegilops tauschii) was 80 to 100%, the “Herbicidal activities, Leptochloa chinensis (inhibition rate class)” value (Leptochloa chinensis) was “A (A indicates that the inhibition rate was greater than or equal to 80% to 100%)” and the inhibition at 120 g/ha (Digitaria sanguinalis [4]) was 80 to 100%. The “Herbicidal activities, Alopecurus japonicus (inhibition rate class)” value (Alopecurus japonicus) was “A (A indicates that the inhibition rate was greater than or equal to 80% to 100%)”, the “Herbicidal activities, Lolium multiflorum (inhibition rate class)” value (Lolium multiflorum) was “A (A indicates that the inhibition rate was greater than or equal to 80% to 100%)” and the “Herbicidal activities, Eleusine indica (inhibition rate class)” value (Eleusine indica) was “A (A indicates that the inhibition rate was greater than or equal to 80% to 100%)”. The inhibition at 120 g/ha (Eclipta prostrata [5]) was 80 to 100%, the “Herbicidal activities, Alopecurus myosuroides (inhibition rate class)” value (Alopecurus myosuroides) was “A (A indicates that the inhibition rate was greater than or equal to 80% to 100%)” and the inhibition at 120 g/ha (Cyperus iria [6]) was 80 to 100%.
With `O=C(O)[C@H]1CC[C@@H](NC(=O)[C@@]2(C(F)(F)F)CC(c3cc(F)cc(F)c3)=NO2)C1` [CK6, reference compound] the inhibition at 30 g/ha (Digitaria sanguinalis [1]) was 20 to 40%, the inhibition at 30 g/ha (Eclipta prostrata [2]) was < 20% and the inhibition at 30 g/ha (Cyperus iria [3]) was 20 to 40%. For the same compound, the inhibition at 60 g/ha (Aegilops tauschii) was < 20%, the inhibition at 60 g/ha (Digitaria sanguinalis [4]) was < 20% and the inhibition at 60 g/ha (Eclipta prostrata [5]) was < 20%. For the same compound, the inhibition at 60 g/ha (Cyperus iria [6]) was 40 to 60%.
In the case of `C=C[C@]1(C(=O)N[C@H]2CO[C@@H](C(=O)O)C2)CC(c2cc(F)cc(F)c2)=NO1` [icafolin, reference compound], the inhibition at 30 g/ha (Digitaria sanguinalis [1]) is reported as 40 to 60%, the inhibition at 30 g/ha (Eclipta prostrata [2]) is reported as < 20% and the inhibition at 30 g/ha (Cyperus iria [3]) is reported as 40 to 60%. For the same compound, the inhibition at 60 g/ha (Aegilops tauschii) was 40 to 60%, the inhibition at 60 g/ha (Digitaria sanguinalis [4]) was 20 to 40% and the inhibition at 60 g/ha (Eclipta prostrata [5]) was < 20%. For the same compound, the inhibition at 60 g/ha (Cyperus iria [6]) was 20 to 40%.
For `C=CC1(C(=O)NC2COC(C(=O)OC)C2)CC(c2cc(F)cc(F)c2)=NO1` (stereo not drawn) [icafolin-methyl, reference compound], the inhibition at 30 g/ha (Digitaria sanguinalis [1]) was 40 to 60%, the inhibition at 30 g/ha (Eclipta prostrata [2]) was 40 to 60% and the inhibition at 30 g/ha (Cyperus iria [3]) was 40 to 60%. It also gave an inhibition at 60 g/ha (Aegilops tauschii) of 40 to 60%, an inhibition at 60 g/ha (Digitaria sanguinalis [4]) of 20 to 40% and an inhibition at 60 g/ha (Eclipta prostrata [5]) of 40 to 60%. It also gave an inhibition at 60 g/ha (Cyperus iria [6]) of 20 to 40%.
